Measurements taken from ChEMBL document CHEMBL5715956, “Selective Targeting of Bromodomains of the Bromodomain-PHD Fingers Family Impairs Osteoclast Differentiation” (ACS Chem Biol, 2017).

Tests used:
[1] = target: Bromodomain-containing protein 4 (Homo sapiens) (UniProt O60885); assay: Binding affinity to BRD4 BD1 (unknown origin) assessed as change in enthalpy at 14 uM by Isothermal titration calorimetry
[2] = target: T1, Bromodomain and PHD finger-containing protein 3 (Homo sapiens) (UniProt Q9ULD4); assay: Binding affinity to BRPF3 (unknown origin) assessed as change in entropy at 12 uM by Isothermal titration calorimetry
T1 sequence (whole entry): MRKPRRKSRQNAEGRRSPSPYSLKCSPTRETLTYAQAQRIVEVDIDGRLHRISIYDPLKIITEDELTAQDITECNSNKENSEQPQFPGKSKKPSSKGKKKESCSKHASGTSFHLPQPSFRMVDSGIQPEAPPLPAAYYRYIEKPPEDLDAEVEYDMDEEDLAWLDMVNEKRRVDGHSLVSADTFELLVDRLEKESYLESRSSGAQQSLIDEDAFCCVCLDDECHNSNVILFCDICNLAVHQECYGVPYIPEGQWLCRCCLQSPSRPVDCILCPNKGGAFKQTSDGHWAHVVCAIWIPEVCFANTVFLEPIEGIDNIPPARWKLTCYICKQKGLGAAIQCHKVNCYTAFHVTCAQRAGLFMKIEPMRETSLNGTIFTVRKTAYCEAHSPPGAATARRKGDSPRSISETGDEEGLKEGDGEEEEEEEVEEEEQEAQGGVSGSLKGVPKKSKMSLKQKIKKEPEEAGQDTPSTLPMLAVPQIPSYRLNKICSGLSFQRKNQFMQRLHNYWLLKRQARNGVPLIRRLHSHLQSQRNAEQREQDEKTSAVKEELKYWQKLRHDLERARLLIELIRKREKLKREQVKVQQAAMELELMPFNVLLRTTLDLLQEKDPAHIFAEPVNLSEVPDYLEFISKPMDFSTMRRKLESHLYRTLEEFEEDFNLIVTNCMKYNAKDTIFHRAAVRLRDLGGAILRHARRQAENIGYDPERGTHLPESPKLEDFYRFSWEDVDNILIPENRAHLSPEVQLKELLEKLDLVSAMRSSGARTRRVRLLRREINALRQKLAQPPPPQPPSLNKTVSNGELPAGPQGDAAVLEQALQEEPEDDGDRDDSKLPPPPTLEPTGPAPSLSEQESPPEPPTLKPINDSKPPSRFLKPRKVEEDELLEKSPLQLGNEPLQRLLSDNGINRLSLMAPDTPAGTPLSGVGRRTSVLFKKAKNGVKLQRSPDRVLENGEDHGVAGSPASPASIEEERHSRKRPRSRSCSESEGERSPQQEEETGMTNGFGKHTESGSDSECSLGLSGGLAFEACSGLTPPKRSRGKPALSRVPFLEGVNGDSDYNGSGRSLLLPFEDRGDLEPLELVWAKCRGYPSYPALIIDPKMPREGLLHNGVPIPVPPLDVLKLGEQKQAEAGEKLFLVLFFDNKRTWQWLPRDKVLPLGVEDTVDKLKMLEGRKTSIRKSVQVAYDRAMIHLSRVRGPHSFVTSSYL

[3] = target: T2, Bromodomain-containing protein 1 (Homo sapiens) (UniProt O95696); assay: Binding affinity to BRPF2 (unknown origin) assessed as change in entropy TdeltaS at 12 uM by Isothermal titration calorimetry
T2 sequence (whole entry): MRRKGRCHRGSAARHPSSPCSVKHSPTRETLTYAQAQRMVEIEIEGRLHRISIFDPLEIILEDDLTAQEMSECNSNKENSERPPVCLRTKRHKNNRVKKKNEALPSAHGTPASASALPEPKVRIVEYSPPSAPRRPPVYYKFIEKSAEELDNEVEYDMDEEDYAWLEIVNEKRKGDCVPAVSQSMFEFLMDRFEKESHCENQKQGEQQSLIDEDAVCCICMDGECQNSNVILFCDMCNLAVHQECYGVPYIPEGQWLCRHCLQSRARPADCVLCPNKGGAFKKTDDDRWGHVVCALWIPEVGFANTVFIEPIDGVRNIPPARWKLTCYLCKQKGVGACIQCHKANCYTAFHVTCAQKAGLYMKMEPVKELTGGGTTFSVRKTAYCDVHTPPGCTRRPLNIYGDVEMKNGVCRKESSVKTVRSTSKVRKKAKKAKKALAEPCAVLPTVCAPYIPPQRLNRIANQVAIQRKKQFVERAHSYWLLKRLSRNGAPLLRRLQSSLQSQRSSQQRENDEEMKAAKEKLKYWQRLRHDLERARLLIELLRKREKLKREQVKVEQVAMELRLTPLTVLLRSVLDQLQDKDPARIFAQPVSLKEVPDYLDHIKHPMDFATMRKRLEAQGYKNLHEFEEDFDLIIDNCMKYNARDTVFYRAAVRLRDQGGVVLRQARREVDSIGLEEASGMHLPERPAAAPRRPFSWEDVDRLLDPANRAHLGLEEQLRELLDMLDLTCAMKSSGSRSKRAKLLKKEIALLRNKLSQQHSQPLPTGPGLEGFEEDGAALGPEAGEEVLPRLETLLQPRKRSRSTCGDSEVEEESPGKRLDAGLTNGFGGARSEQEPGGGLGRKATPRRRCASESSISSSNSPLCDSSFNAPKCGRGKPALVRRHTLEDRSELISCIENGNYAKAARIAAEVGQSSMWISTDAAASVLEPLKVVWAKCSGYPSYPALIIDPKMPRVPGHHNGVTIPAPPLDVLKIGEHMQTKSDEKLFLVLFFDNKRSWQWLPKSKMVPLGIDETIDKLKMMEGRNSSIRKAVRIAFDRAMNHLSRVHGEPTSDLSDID

[4] = target: T2, Bromodomain-containing protein 1 (Homo sapiens); assay: Binding affinity to BRPF2 (unknown origin) assessed as change in gibbs free energy at 12 uM by Isothermal titration calorimetry
[5] = target: Muscarinic acetylcholine receptor M2 (Homo sapiens) (UniProt P08172); assay: Inhibition of M2 receptor (unknown origin) at 10 uM relative to control
[6] = target: 5-hydroxytryptamine receptor 5A (Homo sapiens) (UniProt P47898); assay: Inhibition of 5HT5A (unknown origin) at 10 uM relative to control
Homo sapiens = species: Homo sapiens; assay: Binding affinity to Cl channel GABA gated receptor (unknown origin) assessed as specific binding at 10 uM relative to control
[7] = target: Bromodomain-containing protein 9 (Homo sapiens) (UniProt Q9H8M2); details: dose 10.0 µM
[8] = target: Bromodomain testis-specific protein (Homo sapiens) (UniProt Q58F21); details: dose 10.0 µM
[9] = target: Histone acetyltransferase KAT2B (Homo sapiens) (UniProt Q92831); details: dose 10.0 µM
[10] = target: Transcription intermediary factor 1-beta (Homo sapiens) (UniProt Q13263); details: dose 10.0 µM
Sequence of Transcription intermediary factor 1-beta (Homo sapiens) (Q13263 whole entry): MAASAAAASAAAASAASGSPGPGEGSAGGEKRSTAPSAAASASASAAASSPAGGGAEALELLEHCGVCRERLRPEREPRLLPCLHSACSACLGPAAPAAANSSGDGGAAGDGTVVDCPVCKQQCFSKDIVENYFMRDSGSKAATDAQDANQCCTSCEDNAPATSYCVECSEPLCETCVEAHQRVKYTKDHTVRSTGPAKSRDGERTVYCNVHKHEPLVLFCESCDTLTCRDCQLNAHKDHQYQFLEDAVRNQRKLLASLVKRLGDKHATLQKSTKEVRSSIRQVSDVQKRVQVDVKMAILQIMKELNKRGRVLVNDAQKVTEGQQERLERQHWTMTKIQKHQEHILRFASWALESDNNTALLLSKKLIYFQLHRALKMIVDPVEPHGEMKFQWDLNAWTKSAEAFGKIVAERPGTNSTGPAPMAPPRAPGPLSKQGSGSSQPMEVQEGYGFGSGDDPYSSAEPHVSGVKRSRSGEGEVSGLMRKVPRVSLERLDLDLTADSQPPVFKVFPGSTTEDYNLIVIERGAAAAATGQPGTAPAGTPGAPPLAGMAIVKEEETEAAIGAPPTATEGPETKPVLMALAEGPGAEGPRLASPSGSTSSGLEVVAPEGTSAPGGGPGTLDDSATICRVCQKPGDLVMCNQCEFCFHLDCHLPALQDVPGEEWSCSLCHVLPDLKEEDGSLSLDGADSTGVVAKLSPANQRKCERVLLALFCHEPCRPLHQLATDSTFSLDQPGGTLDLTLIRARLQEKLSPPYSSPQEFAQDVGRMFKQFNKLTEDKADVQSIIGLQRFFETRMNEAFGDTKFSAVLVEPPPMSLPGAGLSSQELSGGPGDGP

Sequence of Bromodomain-containing protein 9 (Homo sapiens) (Q9H8M2 whole entry): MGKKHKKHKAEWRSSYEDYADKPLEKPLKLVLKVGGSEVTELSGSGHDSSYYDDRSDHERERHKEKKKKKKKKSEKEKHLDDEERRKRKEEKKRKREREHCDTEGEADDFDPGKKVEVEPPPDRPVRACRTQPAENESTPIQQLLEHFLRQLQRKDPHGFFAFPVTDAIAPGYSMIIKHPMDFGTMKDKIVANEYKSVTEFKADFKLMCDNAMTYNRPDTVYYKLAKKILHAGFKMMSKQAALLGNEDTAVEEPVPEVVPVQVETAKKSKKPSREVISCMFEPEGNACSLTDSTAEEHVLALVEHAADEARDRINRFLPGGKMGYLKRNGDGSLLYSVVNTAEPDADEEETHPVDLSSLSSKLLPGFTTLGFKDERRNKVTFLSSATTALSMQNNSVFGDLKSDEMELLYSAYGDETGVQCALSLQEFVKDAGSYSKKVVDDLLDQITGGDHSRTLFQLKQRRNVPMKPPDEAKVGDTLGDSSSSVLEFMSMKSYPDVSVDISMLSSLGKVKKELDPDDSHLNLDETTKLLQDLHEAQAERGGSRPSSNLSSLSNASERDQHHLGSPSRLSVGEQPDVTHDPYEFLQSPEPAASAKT
Sequence of Histone acetyltransferase KAT2B (Homo sapiens) (Q92831 whole entry, looked up): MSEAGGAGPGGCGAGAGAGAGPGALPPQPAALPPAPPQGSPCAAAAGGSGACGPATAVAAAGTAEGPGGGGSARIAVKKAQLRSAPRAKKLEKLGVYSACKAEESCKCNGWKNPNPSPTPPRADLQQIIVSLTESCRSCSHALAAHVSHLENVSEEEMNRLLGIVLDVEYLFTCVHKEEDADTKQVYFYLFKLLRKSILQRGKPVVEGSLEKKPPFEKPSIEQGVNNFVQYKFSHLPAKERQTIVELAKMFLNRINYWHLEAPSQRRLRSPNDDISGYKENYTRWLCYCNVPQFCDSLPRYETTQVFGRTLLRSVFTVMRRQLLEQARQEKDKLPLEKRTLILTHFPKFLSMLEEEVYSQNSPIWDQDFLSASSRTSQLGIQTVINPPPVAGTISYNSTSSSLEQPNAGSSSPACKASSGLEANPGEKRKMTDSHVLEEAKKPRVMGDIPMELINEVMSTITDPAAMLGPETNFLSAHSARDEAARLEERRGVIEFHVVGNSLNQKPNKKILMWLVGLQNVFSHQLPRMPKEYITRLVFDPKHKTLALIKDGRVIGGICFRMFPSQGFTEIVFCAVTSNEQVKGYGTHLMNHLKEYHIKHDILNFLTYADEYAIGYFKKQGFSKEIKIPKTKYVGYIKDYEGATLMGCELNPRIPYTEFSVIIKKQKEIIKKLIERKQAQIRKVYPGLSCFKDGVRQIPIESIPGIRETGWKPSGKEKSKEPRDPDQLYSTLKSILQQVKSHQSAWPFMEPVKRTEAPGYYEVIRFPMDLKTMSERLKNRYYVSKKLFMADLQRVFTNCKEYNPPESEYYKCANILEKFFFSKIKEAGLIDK
Sequence of Muscarinic acetylcholine receptor M2 (Homo sapiens) (P08172 whole entry): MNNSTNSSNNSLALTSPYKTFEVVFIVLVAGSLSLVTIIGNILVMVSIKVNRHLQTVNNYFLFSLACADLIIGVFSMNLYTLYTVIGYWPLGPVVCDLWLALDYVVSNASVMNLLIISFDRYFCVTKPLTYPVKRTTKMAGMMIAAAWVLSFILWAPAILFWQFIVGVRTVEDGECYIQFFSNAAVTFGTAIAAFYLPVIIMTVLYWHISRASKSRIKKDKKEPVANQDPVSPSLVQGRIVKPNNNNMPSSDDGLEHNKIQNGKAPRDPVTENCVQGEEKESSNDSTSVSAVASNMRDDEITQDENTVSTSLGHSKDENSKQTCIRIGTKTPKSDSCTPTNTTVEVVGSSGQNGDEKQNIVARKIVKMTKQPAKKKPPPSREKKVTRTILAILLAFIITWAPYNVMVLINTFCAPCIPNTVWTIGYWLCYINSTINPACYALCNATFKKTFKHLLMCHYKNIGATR
Sequence of 5-hydroxytryptamine receptor 5A (Homo sapiens) (P47898 whole entry): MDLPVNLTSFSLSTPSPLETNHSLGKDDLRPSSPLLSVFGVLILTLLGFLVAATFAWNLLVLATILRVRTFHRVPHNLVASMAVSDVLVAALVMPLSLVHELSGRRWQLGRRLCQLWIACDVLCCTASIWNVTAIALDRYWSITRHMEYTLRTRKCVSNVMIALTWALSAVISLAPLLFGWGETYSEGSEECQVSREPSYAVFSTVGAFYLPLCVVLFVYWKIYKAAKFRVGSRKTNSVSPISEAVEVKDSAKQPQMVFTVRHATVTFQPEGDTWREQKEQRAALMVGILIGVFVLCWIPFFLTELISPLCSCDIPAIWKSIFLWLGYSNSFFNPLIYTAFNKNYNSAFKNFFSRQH

deltaH [1]: -6.93 kcal/mol | deltaS [2]: 0.002 kcal/mol/K | TdeltaS [3]: -1.2 kcal/mol | deltaG [4]: -8.3 kcal/mol | inhibition [5]: 9% | inhibition [6]: 22% | Activity (Homo sapiens): 95.3% | ΔTm [7]: 1 °C | ΔTm [8]: 0.8 °C | ΔTm [9]: 0.3 °C | ΔTm [10]: 0.2 °C
Compound: COc1cc2c(cc1NS(=O)(=O)c1ccc(Br)cc1C)n(C)c(=O)n2C
